This note sets out measurements from US11420966B2 (ACLARIS THERAPEUTICS, INC., priority 2019, dated 2022).

The structures appear in SMILES notation. pIC50: −log10 of the molar value.

The test system of assay [1] is IFNγ stimulated STAT1 phosphorylation on Tyr701 (JAK1/2). In words: JAK1/2 cellular target modulation: IFNγ stimulated phospho-STAT1 in PBMC. Format: cell-based. The settings on record: human PBMC, IFNγ 10 ng/ml; read-out: Infγ-STAT1 IC50. The text has this: (§1) JAK Cellular Target Modulation Assays
(§2) Target modulation was based upon the ability of a compound to inhibit JAK isoform specific phosphorylation of selected substrates. IL-2 stimulated STAT5 phosphorylation on Tyr694 was used to assess JAK1/3 compound selectivity. GM-CSF stimulated STAT5 phosphorylation on Tyr694 was used to assess JAK2 compound selectivity. IFNγ stimulated STAT1 phosphorylation on Tyr701 was used to assess JAK1/2 compound selectivity. IL-12 stimulated STAT4 phosphorylation on Tyr693 was used to assess JAK2/TYK2 compound selectivity. For all four assays, human PBMC from frozen stocks were thawed, pelleted, resuspended in complete media (90% RPMI, 10% heat inactivated FBS, 10 mM HEPES, 47 μM 2-ME, pen/strep) and placed in wells of a 96 well V-bottom plate at 200,000 per well in 120 μl complete media. Compounds were added as 15 μl per well of 10× working stock solutions in complete media with 1% DMSO (or medium with 1% DMSO for controls) and placed on a plate shaker in a 37° C. incubator with 5% CO2 for 1 hour with gentle shaking (setting of 3). Stimulation used the addition of soluble cytokines. For the JAK1/3 phospho-STAT5 assay, 15 μl of 10× working stock recombinant human IL-2 was added to a final concentration of 25 ng/ml. For the JAK2 phospho-STAT5 assay, 15 μl of 10× working stock recombinant human GM-CSF was added to a final concentration of 5 ng/ml. For the JAK1/2 phospho-STAT1 assay, 15 μl of 10× working stock of recombinant human IFNγ was added to a final concentration of 10 ng/ml. For the JAK2/TYK2 phospho-STAT4 assay, 15 μl of 10× working stock of recombinant human IL-12 was added to a final concentration of 1.7 ng/ml. Plates were then placed back on the plate shaker in the incubator for an additional 5, 5, 10, and 25 minutes respectively upon which the plates were removed from the incubator, sealed with a plate sealer and the cells pelleted at 400×g for 5 minutes. After pelleting, the media was removed by aspiration and the cells were lysed in assay specific cell lysis buffer. The levels of phospho-STATS were determined using a Phospho (Tyr694) STAT5a,b Whole Cell Lysate kit from Meso Scale Discovery. Levels of phospho-STAT1 were determined using a CST-PathScan Phospho-STAT1 (Tyr701) Sandwich ELISA kit. Levels of phospho-STAT4 were determined using a Phospho-STAT4 (Tyr693) Whole Cell Lysate kit from Meso Scale Discovery.

The next assay has as its target Tyk-2 (Homo sapiens (Human), UniProt P29597). In words: Tyk-2 enzyme activity assay (Thermo Fisher SelectScreen, Z-lyte). The settings on record: read-out: Tyk-2 Inhibition IC50. Format: biochemical. The method, boiled down: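 Z-lyte FRET assay: 3.75–15 ng TYK2 with […] Tyr 03 peptide in HEPES pH 7.0, MgCl2, EGTA, BRIJ-35; 1 h reaction, then development reagent. 11-point dose-response, 2% DMSO; IC50 via 4-parameter fit of emission ratio, background without enzyme.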

Assay [2] has as its system IL-12 stimulated STAT4 phosphorylation on Tyr693 (JAK2/TYK2). Description: JAK2/TYK2 cellular target modulation: IL-12 stimulated phospho-STAT4 in PBMC. Type of assay: cell-based. The note with it: human PBMC, IL-12 1.7 ng/ml; read-out: IL12-STAT4 IC50.
Source text: as §1, §2

Another assay deals with JAK1 (Homo sapiens (Human), UniProt P23458). In words: JAK1 enzyme activity assay (Thermo Fisher SelectScreen, Z-lyte). The note with it: read-out: JAK1 Inhibition IC50. Type of assay: biochemical. In a few lines: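 Z-lyte assay with 21.2-91.5 ng JAK and […] Tyr 06 in 50 mM HEPES pH 7.0, 10 mM MgCl2, 1 mM EGTA, 0.01% BRIJ-35; 1 h kinase reaction, then development reagent. 11-point dose-response from […] to 0.34 nM, 2% DMSO vehicle; IC50 from 4-parameter logistic fit of emission ratio.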
JAK1, sequence (P23458 whole entry): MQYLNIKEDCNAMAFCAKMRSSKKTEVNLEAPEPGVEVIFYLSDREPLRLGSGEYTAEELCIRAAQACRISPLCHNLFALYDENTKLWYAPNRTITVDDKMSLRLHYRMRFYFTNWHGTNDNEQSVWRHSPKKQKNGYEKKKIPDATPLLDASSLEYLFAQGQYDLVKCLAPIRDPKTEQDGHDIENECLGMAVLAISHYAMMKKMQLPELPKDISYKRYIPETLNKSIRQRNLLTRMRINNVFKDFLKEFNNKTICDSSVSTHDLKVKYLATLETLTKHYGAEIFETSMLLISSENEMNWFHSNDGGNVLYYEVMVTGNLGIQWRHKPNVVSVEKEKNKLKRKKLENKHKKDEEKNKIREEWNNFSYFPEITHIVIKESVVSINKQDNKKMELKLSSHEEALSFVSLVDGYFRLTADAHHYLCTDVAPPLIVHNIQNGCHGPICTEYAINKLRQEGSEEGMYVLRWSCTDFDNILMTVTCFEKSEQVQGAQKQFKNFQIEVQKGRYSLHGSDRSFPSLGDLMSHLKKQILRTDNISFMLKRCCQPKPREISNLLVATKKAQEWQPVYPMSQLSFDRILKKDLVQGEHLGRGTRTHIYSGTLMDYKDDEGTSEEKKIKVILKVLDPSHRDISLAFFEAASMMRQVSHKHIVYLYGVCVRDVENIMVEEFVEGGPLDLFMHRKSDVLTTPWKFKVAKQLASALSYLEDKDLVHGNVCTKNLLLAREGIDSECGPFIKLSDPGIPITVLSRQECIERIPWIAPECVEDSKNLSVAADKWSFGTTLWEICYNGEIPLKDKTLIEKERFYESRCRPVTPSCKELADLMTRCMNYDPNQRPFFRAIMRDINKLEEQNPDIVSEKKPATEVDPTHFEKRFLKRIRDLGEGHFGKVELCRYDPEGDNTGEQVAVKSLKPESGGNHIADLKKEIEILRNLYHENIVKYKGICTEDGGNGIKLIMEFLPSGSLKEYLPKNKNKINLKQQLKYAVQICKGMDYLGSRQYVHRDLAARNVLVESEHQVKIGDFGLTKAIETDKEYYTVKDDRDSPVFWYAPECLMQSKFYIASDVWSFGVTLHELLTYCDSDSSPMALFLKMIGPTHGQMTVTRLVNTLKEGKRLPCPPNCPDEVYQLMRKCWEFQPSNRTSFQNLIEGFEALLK

In a further assay the target is JAK3 (a.a. 781-1124) (Homo sapiens (Human), UniProt P52333). Description: JAK3 enzyme activity assay (SRCtide phosphorylation, Caliper). Format: biochemical. The settings on record: 1 uM ATP; read-out: JAK3 Inhibition IC50.
JAK3 (a.a. 781-1124), sequence (P52333 781-1124): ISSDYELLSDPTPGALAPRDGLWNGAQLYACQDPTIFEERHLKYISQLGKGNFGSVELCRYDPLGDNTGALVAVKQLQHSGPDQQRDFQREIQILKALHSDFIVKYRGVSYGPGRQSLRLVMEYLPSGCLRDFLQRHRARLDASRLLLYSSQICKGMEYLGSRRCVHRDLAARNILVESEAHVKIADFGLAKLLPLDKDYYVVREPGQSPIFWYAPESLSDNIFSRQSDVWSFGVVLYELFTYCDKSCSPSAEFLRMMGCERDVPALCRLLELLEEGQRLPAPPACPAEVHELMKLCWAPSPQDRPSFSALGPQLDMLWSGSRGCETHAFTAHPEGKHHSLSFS
Assay [3] has as its system IL-2 stimulated STAT5 phosphorylation on Tyr694 (JAK1/3). In words: JAK1/3 cellular target modulation: IL-2 stimulated phospho-STAT5 in PBMC. Format: cell-based. The settings on record: human PBMC, IL-2 25 ng/ml; read-out: IL2-STAT5 IC50. The method, boiled down:
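Thawed human PBMC (200,000/well, RPMI/10% FBS) were preincubated with compound for 1 h at 37 °C, added from 10× stocks in 1% DMSO. Stimulation and read-out: IL-2 25 ng/ml, 5 min, pSTAT5 by MSD; IL-12 1.7 ng/ml, 25 min, pSTAT4 by MSD; IFNγ 10 ng/ml, 10 min, pSTAT1 by sandwich ELISA.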

The target of another assay is JAK2 (Homo sapiens (Human), UniProt O60674). In words: JAK2 enzyme activity assay (Thermo Fisher SelectScreen, Z-lyte). Type of assay: biochemical. The settings on record: read-out: JAK2 Inhibition IC50. The method, boiled down:
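Z-lyte FRET kinase assay: 0.12-0.5 ng JAK2 with […] Tyr 06 peptide in 50 mM HEPES pH 7.5, 0.01% BRIJ-35, 10 mM MgCl2, 1 mM EGTA, 1 h reaction before development reagent. 11-point dose-response from […] to 0.34 nM, 2% DMSO; IC50 from 4-parameter fit of emission ratio.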

Tyk-2, sequence (P29597 whole entry): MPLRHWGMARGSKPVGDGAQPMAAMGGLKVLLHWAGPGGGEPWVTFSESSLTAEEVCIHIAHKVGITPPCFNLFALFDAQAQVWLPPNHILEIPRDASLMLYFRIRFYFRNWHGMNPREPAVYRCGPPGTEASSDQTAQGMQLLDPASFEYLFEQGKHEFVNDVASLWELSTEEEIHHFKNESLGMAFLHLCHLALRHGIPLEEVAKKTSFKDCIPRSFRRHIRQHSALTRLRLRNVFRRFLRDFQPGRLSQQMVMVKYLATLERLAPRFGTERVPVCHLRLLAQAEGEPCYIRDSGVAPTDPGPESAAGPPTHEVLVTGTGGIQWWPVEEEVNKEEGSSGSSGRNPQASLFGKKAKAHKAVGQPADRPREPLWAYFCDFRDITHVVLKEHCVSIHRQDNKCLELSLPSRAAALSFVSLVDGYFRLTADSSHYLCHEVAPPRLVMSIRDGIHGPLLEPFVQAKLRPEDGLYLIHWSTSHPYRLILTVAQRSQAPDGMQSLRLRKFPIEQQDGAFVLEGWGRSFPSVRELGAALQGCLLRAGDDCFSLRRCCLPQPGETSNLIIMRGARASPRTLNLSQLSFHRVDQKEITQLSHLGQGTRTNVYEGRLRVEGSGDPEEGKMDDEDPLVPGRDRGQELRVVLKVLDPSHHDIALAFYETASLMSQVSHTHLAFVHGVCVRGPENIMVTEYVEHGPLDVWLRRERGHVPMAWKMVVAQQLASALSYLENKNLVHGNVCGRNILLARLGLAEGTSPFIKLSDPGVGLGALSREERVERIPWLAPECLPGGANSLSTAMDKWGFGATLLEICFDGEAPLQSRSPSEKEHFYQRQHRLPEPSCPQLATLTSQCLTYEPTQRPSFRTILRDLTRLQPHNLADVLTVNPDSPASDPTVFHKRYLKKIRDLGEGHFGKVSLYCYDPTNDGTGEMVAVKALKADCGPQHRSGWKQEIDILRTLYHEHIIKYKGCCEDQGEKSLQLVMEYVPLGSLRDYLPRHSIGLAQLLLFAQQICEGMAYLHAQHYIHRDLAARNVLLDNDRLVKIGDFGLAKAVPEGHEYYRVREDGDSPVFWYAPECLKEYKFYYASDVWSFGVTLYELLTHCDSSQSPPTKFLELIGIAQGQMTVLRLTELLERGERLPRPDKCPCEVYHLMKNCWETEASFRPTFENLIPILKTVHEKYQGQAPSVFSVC
JAK2, sequence (O60674 whole entry): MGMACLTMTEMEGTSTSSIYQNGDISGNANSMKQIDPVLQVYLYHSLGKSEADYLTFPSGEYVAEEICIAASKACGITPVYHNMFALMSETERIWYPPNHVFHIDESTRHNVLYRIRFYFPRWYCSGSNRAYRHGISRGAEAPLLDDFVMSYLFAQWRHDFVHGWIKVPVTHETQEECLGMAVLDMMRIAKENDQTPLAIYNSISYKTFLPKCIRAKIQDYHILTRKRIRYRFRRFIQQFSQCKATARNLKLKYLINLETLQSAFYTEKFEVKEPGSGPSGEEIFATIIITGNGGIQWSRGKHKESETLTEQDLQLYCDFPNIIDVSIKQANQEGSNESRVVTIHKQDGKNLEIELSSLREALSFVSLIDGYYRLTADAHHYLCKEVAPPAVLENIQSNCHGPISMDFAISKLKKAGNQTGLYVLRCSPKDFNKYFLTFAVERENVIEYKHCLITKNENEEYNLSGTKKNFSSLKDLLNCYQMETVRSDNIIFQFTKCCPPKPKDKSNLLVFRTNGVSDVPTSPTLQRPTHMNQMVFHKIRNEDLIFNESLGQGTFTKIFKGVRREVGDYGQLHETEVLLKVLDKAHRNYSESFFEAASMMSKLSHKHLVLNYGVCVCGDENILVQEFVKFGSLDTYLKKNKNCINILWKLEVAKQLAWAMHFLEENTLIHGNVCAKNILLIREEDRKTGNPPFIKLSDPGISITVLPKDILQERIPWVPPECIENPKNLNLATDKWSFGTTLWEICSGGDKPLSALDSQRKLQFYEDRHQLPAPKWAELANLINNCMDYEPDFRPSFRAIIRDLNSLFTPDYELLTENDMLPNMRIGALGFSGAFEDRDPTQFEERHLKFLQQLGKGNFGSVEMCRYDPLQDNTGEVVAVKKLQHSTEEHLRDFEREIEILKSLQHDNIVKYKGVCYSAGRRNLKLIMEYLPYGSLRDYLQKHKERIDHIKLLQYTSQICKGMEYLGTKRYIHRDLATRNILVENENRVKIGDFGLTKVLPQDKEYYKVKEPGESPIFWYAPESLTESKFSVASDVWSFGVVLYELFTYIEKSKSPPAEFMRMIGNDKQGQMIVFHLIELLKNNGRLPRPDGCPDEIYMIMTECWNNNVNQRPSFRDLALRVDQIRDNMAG

`Cc1noc(-c2cnc3[nH]ccc3c2N[C@@H]2CCCN(C(=O)CC#N)C2)n1` [Example 6, (R)-3-(3-((5-(3-methyl-1,2,4-oxadiazol-5-yl)-1H-pyrrolo[2,3-b]pyridin-4-yl)amino)piperidin-1-yl)-3-oxopropanenitrile]: the pIC50 (in general, the IC50 on a negative log10 scale, so that one unit is a factor of ten) is 6.00 to 7.00 in assay [1]; 7.00 to 8.00 on Tyk-2; below 6.00 in assay [2]; at least 8.00 on JAK1; at least 8.00 on JAK3 (a.a. 781-1124); at least 7.00 in assay [3]. The negative-log IC50 (pIC50) on JAK2 is 7.00 to 8.00.

For `N#CCC(=O)N1CCC[C@@H](Nc2c(-c3nnco3)cnc3[nH]ccc23)C1` [Example 7, (R)-3-(3-((5-(1,3,4-oxadiazol-2-yl)-1H-pyrrolo[2,3-b]pyridin-4-yl)amino)piperidin-1-yl)-3-oxopropanenitrile], the pIC50 in assay [1] is 6.00 to 7.00; at Tyk-2, 7.00 to 8.00; in assay [2], below 6.00; at JAK1, 7.00 to 8.00; at JAK3 (a.a. 781-1124), 7.00 to 8.00; in assay [3], 6.00 to 7.00. Also, the pIC50 on JAK2 was 7.00 to 8.00.

As to `O[C@H]1CC[C@@H](Nc2c(-c3ncco3)cnc3[nH]ccc23)C1` [Example 13, (1S,3R)-3-((5-(oxazol-2-yl)-1H-pyrrolo[2,3-b]pyridin-4-yl)amino)cyclopentan-1-ol], the pIC50 in assay [1] was below 6.00; on Tyk-2, 6.00 to 7.00; in assay [2], below 6.00; at JAK1 it was 7.00 to 8.00; on JAK3 (a.a. 781-1124), 7.00 to 8.00; in assay [3], 6.00 to 7.00. Besides, the pIC50 at JAK2 is 7.00 to 8.00.

As for `Cc1ccnc(-c2cnc3[nH]ccc3c2N[C@@H]2CCCN(C(=O)CC#N)C2)c1` [Example 15, (R)-3-(3-((5-(4-methylpyridin-2-yl)-1H-pyrrolo[2,3-b]pyridin-4-yl)amino)piperidin-1-yl)-3-oxopropanenitrile], the pIC50 is 6.00 to 7.00 in assay [1]; 7.00 to 8.00 on Tyk-2; below 6.00 in assay [2]; at least 8.00 on JAK1; at least 8.00 on JAK3 (a.a. 781-1124); at least 7.00 in assay [3]. In addition, the pIC50 on JAK2 was 7.00 to 8.00.

Turning to `N#CCC(=O)N1CCC[C@@H](Nc2c(-c3ccn[nH]3)cnc3[nH]ccc23)C1` [Example 18, (R)-3-(3-((5-(1H-pyrazol-5-yl)-1H-pyrrolo[2,3-b]pyridin-4-yl)amino)piperidin-1-yl)-3-oxopropanenitrile], the negative-log IC50 (pIC50) in assay [1] is 6.00 to 7.00; on Tyk-2, 7.00 to 8.00; in assay [2] it was below 6.00; on JAK1 it was at least 8.00; at JAK3 (a.a. 781-1124), at least 8.00; in assay [3], at least 7.00. The pIC50 at JAK2 was 7.00 to 8.00.

Take `Cc1nc(-c2cnc3[nH]ccc3c2N[C@@H]2CCCN(C(=O)CC#N)C2)no1` [Example 19, (R)-3-(3-((5-(5-methyl-1,2,4-oxadiazol-3-yl)-1H-pyrrolo[2,3-b]pyridin-4-yl)amino)piperidin-1-yl)-3-oxopropanenitrile]: the pIC50 in assay [1] is below 6.00; on Tyk-2, 6.00 to 7.00; in assay [2], below 6.00; at JAK1 it was 7.00 to 8.00; on JAK3 (a.a. 781-1124), 7.00 to 8.00; in assay [3] it was 6.00 to 7.00. In addition, at JAK2, the pIC50 was 6.00 to 7.00.

Regarding `Cc1cccc(-c2cnc3[nH]ccc3c2N[C@@H]2CCCN(C(=O)CC#N)C2)n1` [Example 20, (R)-3-(3-((5-(6-methylpyridin-2-yl)-1H-pyrrolo[2,3-b]pyridin-4-yl)amino)piperidin-1-yl)-3-oxopropanenitrile], the pIC50 was 6.00 to 7.00 in assay [1]; 6.00 to 7.00 at Tyk-2; below 6.00 in assay [2]; at least 8.00 on JAK1; 7.00 to 8.00 on JAK3 (a.a. 781-1124); at least 7.00 in assay [3]. In addition, the pIC50 at JAK2 was 7.00 to 8.00.

In the case of `N#CCC(=O)N1CCC[C@@H](Nc2c(-c3ccccn3)cnc3[nH]ccc23)C1` [Example 21, (R)-3-oxo-3-(3-((5-(pyridin-2-yl)-1H-pyrrolo[2,3-b]pyridin-4-yl)amino)piperidin-1-yl)propanenitrile], the negative logarithm of the IC50 (pIC50) in assay [1] was 6.00 to 7.00; on Tyk-2, 7.00 to 8.00; in assay [2] it was 6.00 to 7.00; on JAK1 it was at least 8.00; on JAK3 (a.a. 781-1124) it was 7.00 to 8.00; in assay [3], at least 7.00. Besides, on JAK2, the pIC50 is 7.00 to 8.00.

Turning to `Cc1ccc(-c2cnc3[nH]ccc3c2N[C@@H]2CCCN(C(=O)CC#N)C2)nc1` [Example 22, (R)-3-(3-((5-(5-methylpyridin-2-yl)-1H-pyrrolo[2,3-b]pyridin-4-yl)amino)piperidin-1-yl)-3-oxopropanenitrile], the pIC50 in assay [1] was 6.00 to 7.00; at Tyk-2, 7.00 to 8.00; in assay [2] it was below 6.00; on JAK1, 7.00 to 8.00; at JAK3 (a.a. 781-1124), 7.00 to 8.00; in assay [3] it was 6.00 to 7.00. Moreover, at JAK2, the pIC50 was 7.00 to 8.00.

As for `N#CCC(=O)N1CCC[C@@H](Nc2c(-c3ncccn3)cnc3[nH]ccc23)C1` [Example 23, (R)-3-oxo-3-(3-((5-(pyrimidin-2-yl)-1H-pyrrolo[2,3-b]pyridin-4-yl)amino)piperidin-1-yl)propanenitrile], the pIC50 in assay [1] was below 6.00; at Tyk-2, 6.00 to 7.00; in assay [2] it was below 6.00; at JAK1, 7.00 to 8.00; at JAK3 (a.a. 781-1124), 7.00 to 8.00; in assay [3] it was 6.00 to 7.00. Moreover, on JAK2, the pIC50 is 6.00 to 7.00.

Consider `Cc1cc(-c2cnc3[nH]ccc3c2N[C@@H]2CCCN(C(=O)CC#N)C2)[nH]n1` [Example 26, (R)-3-(3-((5-(3-methyl-1H-pyrazol-5-yl)-1H-pyrrolo[2,3-b]pyridin-4-yl)amino)piperidin-1-yl)-3-oxopropanenitrile], for which the negative logarithm of the IC50 (pIC50) in assay [1] was 6.00 to 7.00; at Tyk-2, 7.00 to 8.00; in assay [2] it was below 6.00; at JAK1, at least 8.00; at JAK3 (a.a. 781-1124), 7.00 to 8.00; in assay [3], at least 7.00. Moreover, the pIC50 at JAK2 was 7.00 to 8.00.

Turning to `N#CCCN1CCC[C@@H](Nc2c(-c3ncco3)cnc3[nH]ccc23)C1` [Example 27, (R)-3-(3-((5-(oxazol-2-yl)-1H-pyrrolo[2,3-b]pyridin-4-yl)amino)piperidin-1-yl)propanenitrile], the pIC50 in assay [1] was below 6.00; on Tyk-2, 6.00 to 7.00; in assay [2], below 6.00; on JAK1, 7.00 to 8.00; on JAK3 (a.a. 781-1124) it was at least 8.00; in assay [3], 6.00 to 7.00. In addition, at JAK2, the pIC50 is 7.00 to 8.00.
